From the OligoGym collection
Several values for one entry are separate records, joined by “and”; a condition that tells them apart may be missing. Equal values may be shown once. After the bases stand the sugars from the 5' end (letter, count) and the backbone: PS all phosphorothioate, else s phosphorothioate and o phosphodiester by linkage. Methylation of C is not given here. e = 2'-O-(2-methoxyethyl) (MOE); k = constrained ethyl (cEt); d = 2'-deoxy (DNA)

Biological target: SOD1
Conditions: ASO

CGCCCTTCAGCACGCAC (sugars e2 k2 d8 k2 e3, PS)
target mRNA inhibition (HepG2, 4 µM): 67%

CGCCCTTCAGCACGCAC (sugars e2 k2 d9 k2 e2, PS)
target mRNA inhibition (HepG2, 0.1875 µM): 12% | target mRNA inhibition (HepG2, 0.75 µM): 47% | target mRNA inhibition (HepG2, 3 µM): 79% | target mRNA inhibition (HepG2, 4 µM): 73% | target mRNA inhibition (HepG2, 12 µM): 94%

CGCTGCAGGAGACTACG (sugars e3 k2 d7 k2 e3, PS)
target mRNA inhibition (HepG2, 3 µM): 0%

CTACAGCTAGCAGGATA (sugars e2 k2 d8 k2 e3, PS)
target mRNA inhibition (HepG2, 0.1875 µM): 40% | target mRNA inhibition (HepG2, 0.75 µM): 79% | target mRNA inhibition (HepG2, 3 µM): 89% | target mRNA inhibition (HepG2, 4 µM): 87% | target mRNA inhibition (HepG2, 12 µM): 94%

CTACATCCAAGGGAATG (sugars e3 k2 d7 k2 e3, PS)
target mRNA inhibition (HepG2, 3 µM): 40%

CTCAGACTACATCCAAG (sugars e2 k2 d8 k2 e3, PS)
target mRNA inhibition (HepG2, 0.1875 µM): 38% | target mRNA inhibition (HepG2, 0.75 µM): 65% | target mRNA inhibition (HepG2, 3 µM): 87% | target mRNA inhibition (HepG2, 4 µM): 85% and 83% | target mRNA inhibition (HepG2, 12 µM): 90% and 96%

CTCCAACATGCCTCTCT (sugars e3 k2 d7 k2 e3, PS)
target mRNA inhibition (HepG2, 3 µM): 5%

CTGACAAGTTTAATACC (sugars e2 k2 d8 k2 e3, PS)
target mRNA inhibition (HepG2, 5 µM): 30%

CTGACAAGTTTAATACC (sugars e3 k2 d7 k2 e3, PS)
target mRNA inhibition (HepG2, 3 µM): 10%

CTGCAGGAGACTACGACGCA (sugars e5 d10 e5, PS)
target mRNA inhibition (HepG2, 4 µM): 36%

CTGGATAGAGGATTAAA (sugars e3 k2 d7 k2 e3, PS)
target mRNA inhibition (HepG2, 3 µM): 26%

CTGGTCCATTACTTTCC (sugars e3 k2 d7 k2 e3, PS)
target mRNA inhibition (HepG2, 3 µM): 11%

CTGGTCCATTACTTTCCTTC (sugars e5 d10 e5, PS)
target mRNA inhibition (HepG2, 3 µM): 50%

CTGGTTCCGAGGACTGCAAC (sugars e5 d10 e5, PS)
target mRNA inhibition (HepG2, 4 µM): 51%

CTTCAATAGACACATCG (sugars e3 k2 d7 k2 e3, PS)
target mRNA inhibition (HepG2, 3 µM): 9%

CTTCAGCACGCACACGGCCT (sugars e5 d10 e5, PS)
target mRNA inhibition (HepG2, 0.1875 µM): 13% | target mRNA inhibition (HepG2, 0.75 µM): 23% | target mRNA inhibition (HepG2, 3 µM): 48% | target mRNA inhibition (HepG2, 4 µM): 57% | target mRNA inhibition (HepG2, 12 µM): 77%

CTTCCAAGTGATCATAA (sugars e2 k2 d8 k2 e3, PS)
target mRNA inhibition (HepG2, 5 µM): 40%

CTTCTGCTCGAAATTGA (sugars e3 k2 d7 k2 e3, PS)
target mRNA inhibition (HepG2, 3 µM): 13%

CTTCTGCTCGAAATTGATGA (sugars e5 d10 e5, PS)
target mRNA inhibition (HepG2, 4 µM): 11%

CTTTCCTTCTGCTCGAA (sugars e3 k2 d7 k2 e3, PS)
target mRNA inhibition (HepG2, 3 µM): 0%

CTTTGCCCAAGTCATCTGCT (sugars e5 d10 e5, PS)
target mRNA inhibition (HepG2, 4 µM): 56% | target mRNA inhibition (HepG2, 12 µM): 86%

CTTTTTCATGGACCACCAGT (sugars e5 d10 e5, PS)
target mRNA inhibition (HepG2, 5 µM): 9%

GAATCCATGCAGGCCTT (sugars e3 k2 d7 k2 e3, PS)
target mRNA inhibition (HepG2, 3 µM): 9%

GACAAGTTTAATACCCA (sugars e3 k2 d7 k2 e3, PS)
target mRNA inhibition (HepG2, 3 µM): 24%

GACGCAAACCAGCACCCCGT (sugars e5 d10 e5, PS)
target mRNA inhibition (HepG2, 4 µM): 45%

GATAACAGATGAGTTAA (sugars e2 k2 d8 k2 e3, PS)
target mRNA inhibition (HepG2, 4 µM): 41%

GATACATTTCTACAGC (sugars ekddddddddekekee, linkages s1 o1 s8 o3 s2)
target mRNA inhibition (A431, 0.12 µM): 0% | target mRNA inhibition (A431, 0.6 µM): 0% | target mRNA inhibition (A431, 3 µM): 0% | target mRNA inhibition (A431, 15 µM): 18% | target mRNA inhibition (HepG2, 0.222 µM): 40% | target mRNA inhibition (HepG2, 0.667 µM): 60% | target mRNA inhibition (HepG2, 2 µM): 80% | target mRNA inhibition (HepG2, 6 µM): 93%

GATACATTTCTACAGCT (sugars e2 k2 d9 k2 e2, PS)
target mRNA inhibition (HepG2, 0.1875 µM): 0% | target mRNA inhibition (HepG2, 0.75 µM): 45% | target mRNA inhibition (HepG2, 3 µM): 75% | target mRNA inhibition (HepG2, 4 µM): 77% | target mRNA inhibition (HepG2, 12 µM): 97%

GATACATTTCTACAGCT (sugars e3 k2 d7 k2 e3, PS)
target mRNA inhibition (HepG2, 3 µM): 40%

GATCCCAATTACACCAC (sugars e2 k2 d8 k2 e3, PS)
target mRNA inhibition (HepG2, 4 µM): 41%

GATTTAAGTCTGGCAAA (sugars e2 k2 d8 k2 e3, PS)
target mRNA inhibition (HepG2, 5 µM): 19%

GCACTGGTACAGCCTGCTGT (sugars e5 d10 e5, PS)
target mRNA inhibition (HepG2, 5 µM): 31% and 24%

GCCATACAGGGTTTTTA (sugars e2 k2 d8 k2 e3, PS)
target mRNA inhibition (HepG2, 5 µM): 13%

GCCATACAGGGTTTTTA (sugars e2 k2 d9 k2 e2, PS)
target mRNA inhibition (HepG2, 5 µM): 26%

GCCGTCGCCCTTCAGCA (sugars e3 k2 d7 k2 e3, PS)
target mRNA inhibition (HepG2, 3 µM): 33%

GCCTCATAATAAGTGCC (sugars e2 k2 d8 k2 e3, PS)
target mRNA inhibition (HepG2, 5 µM): 41%

GCGACTACTTTATAGGC (sugars e3 k2 d7 k2 e3, PS)
target mRNA inhibition (HepG2, 3 µM): 12%

GCGGCCAATGATGCAATGGT (sugars e5 d10 e5, PS)
target mRNA inhibition (HepG2, 5 µM): 13%

GCTAGCAGGATAACAGA (sugars e2 k2 d8 k2 e3, PS)
target mRNA inhibition (HepG2, 4 µM): 19%

GCTTCCCCACACCTTCACTG (sugars e5 d10 e5, PS)
target mRNA inhibition (HepG2, 3 µM): 50%

GCTTCCCCACACCTTCACTG (sugars e5 d10 e5, linkages s1 o3 s11 o3 s1)
target mRNA inhibition (A431, 0.12 µM): 0% | target mRNA inhibition (A431, 0.6 µM): 0% | target mRNA inhibition (A431, 3 µM): 11% | target mRNA inhibition (A431, 15 µM): 0% | target mRNA inhibition (HepG2, 0.222 µM): 14% | target mRNA inhibition (HepG2, 0.667 µM): 32% | target mRNA inhibition (HepG2, 2 µM): 79% | target mRNA inhibition (HepG2, 6 µM): 55%

GCTTGAATGACAAAGAA (sugars e2 k2 d8 k2 e3, PS)
target mRNA inhibition (HepG2, 5 µM): 24%

GCTTTTTCATGGACCAC (sugars e3 k2 d7 k2 e3, PS)
target mRNA inhibition (HepG2, 3 µM): 71%

GGAATGTTTATTGGGCG (sugars e2 k2 d8 k2 e3, PS)
target mRNA inhibition (HepG2, 4 µM): 37%

GGATAACAGATGAGTTA (sugars e2 k2 d9 k2 e2, PS)
target mRNA inhibition (HepG2, 4 µM): 63%

GGATTAAAGTGAGGACC (sugars e3 k2 d7 k2 e3, PS)
target mRNA inhibition (HepG2, 3 µM): 30%

GGCCAGACCTCCGCGCCTCG (sugars e5 d10 e5, PS)
target mRNA inhibition (HepG2, 4 µM): 49%

GGCCTTCAGTCAGTCCTTTA (sugars e5 d10 e5, PS)
target mRNA inhibition (HepG2, 5 µM): 41% and 39%

GGCGATCCCAATTACAC (sugars e2 k2 d8 k2 e3, PS)
target mRNA inhibition (HepG2, 4 µM): 33%

GGCGATCCCAATTACACC (sugars e5 d8 e5, linkages s1 o3 s9 o2 s2)
target mRNA inhibition (A431, 0.062 µM): 3% | target mRNA inhibition (A431, 0.185 µM): 1% | target mRNA inhibition (A431, 0.556 µM): 29% | target mRNA inhibition (A431, 1.667 µM): 0% | target mRNA inhibition (A431, 5 µM): 27% | target mRNA inhibition (A431, 15 µM): 0% | target mRNA inhibition (SH-SY5Y, 0.062 µM): 0% | target mRNA inhibition (SH-SY5Y, 0.185 µM): 3% | target mRNA inhibition (SH-SY5Y, 0.556 µM): 21% | target mRNA inhibition (SH-SY5Y, 1.667 µM): 31% | target mRNA inhibition (SH-SY5Y, 5 µM): 47% | target mRNA inhibition (SH-SY5Y, 15 µM): 66%

GGCGATCCCAATTACACCAC (sugars e5 d10 e5, linkages s1 o3 s11 o3 s1)
target mRNA inhibition (A431, 0.12 µM): 0% | target mRNA inhibition (A431, 0.6 µM): 0% | target mRNA inhibition (A431, 3 µM): 0% | target mRNA inhibition (A431, 15 µM): 30% | target mRNA inhibition (HepG2, 0.222 µM): 24% | target mRNA inhibition (HepG2, 0.667 µM): 34% | target mRNA inhibition (HepG2, 2 µM): 79% | target mRNA inhibition (HepG2, 6 µM): 55%

GGCGATCCCAATTACACCAC (sugars e6 d8 e6, linkages s1 o3 s10 o3 s2)
target mRNA inhibition (A431, 0.062 µM): 7% | target mRNA inhibition (A431, 0.185 µM): 0% | target mRNA inhibition (A431, 0.556 µM): 0% | target mRNA inhibition (A431, 1.667 µM): 23% | target mRNA inhibition (A431, 5 µM): 14% | target mRNA inhibition (A431, 15 µM): 6% | target mRNA inhibition (SH-SY5Y, 0.062 µM): 0% | target mRNA inhibition (SH-SY5Y, 0.185 µM): 0% | target mRNA inhibition (SH-SY5Y, 0.556 µM): 8% | target mRNA inhibition (SH-SY5Y, 1.667 µM): 23% | target mRNA inhibition (SH-SY5Y, 5 µM): 49% | target mRNA inhibition (SH-SY5Y, 15 µM): 66%
